Patent US20220249480A1, “APPLICATION OF FLUORO-SUBSTITUTED 2-AMINOTHIAZOLE-5-AROMATIC CARBOXAMIDE” (HUNAN WARRANT PHARMACEUTICAL CO., LTD, priority 2019, published 2022)

Tests used:
in vitro = conditions: human, microsomes; for CLint scaled at 1 μM / half-life at 1 μM: pH 7.4
Method: Test compound concentration: 1.0 μM
Buffer solution: 0.05 M phosphate buffer solution (pH 7.4)
Human liver microsomes: Corning® UltraPool™ HLM 150, 20 mg/mL
NADPH concentration: 1.0 mM
Total reaction volume: 850 μL
Incubation temperature: 37° C.
Pre-incubation time: 5 min (no NADPH added)
Sampling time: 0, 5, 10, 15, 20 and 30 min (0, 15 and 30 min for control group)
Sampling volume: 85 μL per time point
Test compounds: Verapamil, Dasatinib, and the compound of Formula I
a) Solutions of 10 mM test compounds in DMSO were diluted to 100 μM using acetonitrile:water (50:50).
c) 2.5 mM NADPH solution was formulated.
d) The liver microsomal protein, buffer solution, and test compound were pipetted sequentially into 1.5 ml incubation tubes according to the volume in the experimental design table, and incubated at 37° C. for 5 min with constant shaking.
e) 85 μL of the quenching reagent was added into a 250 μL quenching vial which was then placed on an ice bath.
f) The reaction was initiated by adding NADPH solution, and 85 μL sample was immediately taken and mixed evenly in the quenching vial with controlled incubation and quenching, this is referred to 0 min sampling point. The sample was capped, vortexed and centrifuged at 4° C.
g) The quenching solution was placed at 4° C. for 10 min for the precipitation of the protein.
h) The operations of other sampling points was similar to that of the 0 min sampling point.
i) The sample quenching reaction mixture solution was thoroughly mixed evenly and centrifuged at 14000 rpm for 10 min at room temperature.
j) The supernatant (˜100 μl) was pipetted for LC-MS analysis.
Instrument: Waters® ACQUITY HPLC-Xevo G2-XS QTof
Chromatographic column: ACQUITY UPLC® BEH C18 column 2.1×50 mm, 1.7 μm
Mobile phase: mobile phase A was 0.1% formic acid in water and mobile phase B was 0.1% formic acid in acetonitrile.
The amount of the parent compound at each time point was determined based on the peak area ratio (compound area/warfarin area).
The intrinsic clearance (CLint) was calculated by the following equation:
V(μL/mg)=volume of incubation (μL)/protein amount in the incubation (mg)

ABL1 = molecular target: T1, ABL1 (Homo sapiens, UniProt P00519); assay: In vitro kinase inhibition activity (33P-ATP radiometric filter assay), ABL1; format: biochemical
T1 construct: purchased Invitrogen
T1 sequence (P00519 whole entry): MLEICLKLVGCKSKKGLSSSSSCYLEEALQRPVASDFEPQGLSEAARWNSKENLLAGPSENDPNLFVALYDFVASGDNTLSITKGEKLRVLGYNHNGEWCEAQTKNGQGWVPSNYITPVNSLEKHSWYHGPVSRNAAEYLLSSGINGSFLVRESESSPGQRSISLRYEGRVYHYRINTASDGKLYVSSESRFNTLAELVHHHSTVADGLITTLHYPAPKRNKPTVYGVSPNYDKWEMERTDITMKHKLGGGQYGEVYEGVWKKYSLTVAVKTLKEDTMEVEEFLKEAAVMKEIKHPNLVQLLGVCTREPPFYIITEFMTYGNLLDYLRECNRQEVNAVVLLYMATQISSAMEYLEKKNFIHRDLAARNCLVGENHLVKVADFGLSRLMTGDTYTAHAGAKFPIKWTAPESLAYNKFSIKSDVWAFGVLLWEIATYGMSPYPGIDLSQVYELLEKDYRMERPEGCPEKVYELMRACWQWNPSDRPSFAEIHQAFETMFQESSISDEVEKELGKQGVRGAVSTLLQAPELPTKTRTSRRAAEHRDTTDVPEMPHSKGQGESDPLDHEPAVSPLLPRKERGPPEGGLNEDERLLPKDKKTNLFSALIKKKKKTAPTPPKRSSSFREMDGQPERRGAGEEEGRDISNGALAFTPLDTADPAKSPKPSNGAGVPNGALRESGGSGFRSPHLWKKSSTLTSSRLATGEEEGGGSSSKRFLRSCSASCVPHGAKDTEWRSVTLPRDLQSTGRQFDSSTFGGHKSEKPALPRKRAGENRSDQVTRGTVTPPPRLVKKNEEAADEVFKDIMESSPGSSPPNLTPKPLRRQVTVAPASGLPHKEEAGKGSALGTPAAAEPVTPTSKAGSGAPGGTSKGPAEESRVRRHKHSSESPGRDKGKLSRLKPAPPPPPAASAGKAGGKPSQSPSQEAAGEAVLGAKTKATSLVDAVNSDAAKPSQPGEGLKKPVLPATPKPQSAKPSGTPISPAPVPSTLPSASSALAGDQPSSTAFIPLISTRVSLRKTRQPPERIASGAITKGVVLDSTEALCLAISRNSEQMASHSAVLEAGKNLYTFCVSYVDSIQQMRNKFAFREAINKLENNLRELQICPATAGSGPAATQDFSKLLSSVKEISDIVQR
Method: (§1) Test group: 50 μl DMSO was used to dissolve the compound of Formula I and Dasatinib, respectively, and the final drug concentration was 10 mM.
(§2) Starting concentration of drugs in the test group: 1 μM
(§3) Buffer solution conditions: 20 mM Hepes (pH 7.5), 10 mM MgCl2, 1 mM EGTA, 0.02% Brij35, 0.02 mg/ml BSA, 0.1 mM Na3VO4, 2 mM DTT, 1% DMSO.
(§4) Note: Required enzyme cofactor were added separately to each kinase reaction.
(§5) a) An indicated substrate was prepared in a freshly made reaction buffer.
(§6) b) Any required enzyme cofactors were added into the substrate solution described above.
(§7) c) The indicated kinase was added into the substrate solution and gently mixed.
(§8) d) The test drugs were added into the kinase reaction mixture using Echo 550.
(§9) e) ^33P-ATP (specific radioactivity 0.01 μCi/μl) was added into the reaction mixture, and the reaction was initiated.
(§10) g) The reaction was spotted onto P81 ion-exchange paper.
(§11) h) The filter was washed with 0.75% phosphoric acid.
(§12) i) The radioactive phosphorylated substrate remaining on the filter paper was measured.
(§13) Kinase activity data are expressed as the percent of the remaining kinase activity in the test samples compared with the reactions of the vehicle (dimethyl sulfoxide). IC50 values and curve fitting were obtained using Prism4 software (GraphPad).

BTK = molecular target: T2, BTK (Homo sapiens, UniProt Q06187); assay: In vitro kinase inhibition activity (33P-ATP radiometric filter assay), BTK; format: biochemical
T2 construct: purchased Invitrogen
T2 sequence (Q06187 whole entry): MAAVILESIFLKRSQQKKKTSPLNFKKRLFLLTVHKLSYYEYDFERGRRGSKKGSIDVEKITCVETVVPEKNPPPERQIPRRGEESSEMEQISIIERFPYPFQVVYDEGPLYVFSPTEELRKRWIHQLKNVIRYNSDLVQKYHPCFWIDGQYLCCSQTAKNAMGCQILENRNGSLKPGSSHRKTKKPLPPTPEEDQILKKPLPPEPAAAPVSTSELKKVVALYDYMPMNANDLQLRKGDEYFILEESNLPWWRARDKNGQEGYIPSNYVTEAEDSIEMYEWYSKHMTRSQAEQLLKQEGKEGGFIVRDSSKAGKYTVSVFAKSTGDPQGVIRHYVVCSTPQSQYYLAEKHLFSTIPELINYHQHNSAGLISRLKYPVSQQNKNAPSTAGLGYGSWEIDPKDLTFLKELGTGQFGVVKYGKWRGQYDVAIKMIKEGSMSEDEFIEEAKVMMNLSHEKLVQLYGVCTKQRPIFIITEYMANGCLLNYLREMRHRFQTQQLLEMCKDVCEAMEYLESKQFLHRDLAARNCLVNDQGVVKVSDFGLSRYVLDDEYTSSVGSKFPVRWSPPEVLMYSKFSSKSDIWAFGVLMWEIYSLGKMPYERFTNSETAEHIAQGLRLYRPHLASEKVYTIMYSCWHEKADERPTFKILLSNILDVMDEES
Method: as §1, §2, §3, §4, §5, §6, §7, §8, §9, §10, §11, §12, §13

BTK (C481S) = molecular target: T3, BTK (C481S) (Homo sapiens, UniProt Q06187, C481S); assay: In vitro kinase inhibition activity (33P-ATP radiometric filter assay), BTK (C481S); format: biochemical
T3 construct: purchased Signal Chem
T3 sequence (Q06187 whole entry C481S): as the sequence (Q06187 whole entry) above, with C481S counted along it
Method: as §1, §2, §3, §4, §5, §6, §7, §8, §9, §10, §11, §12, §13

| Clearance (in vitro) [min⁻¹] | CLint scaled at 1 μM (in vitro) [mL/min/kg] | half-life at 1 μM (in vitro) [min] | IC50 (ABL1; ABL1 0.1 nM, ABLtide 20 μM, ATP 10 μM, 15 min compound incubation, 2 h reaction) [pM] | Ratio Dasatinib/the compound of Formula I (ABL1; ratio of IC50 values, ABL1) | IC50 (BTK; BTK 8 nM, pEY 0.2 mg/ml, ATP 10 μM, 15 min compound incubation, 2 h reaction) [nM] | Ratio Dasatinib/the compound of Formula I (BTK; ratio of IC50 values, BTK) | IC50 (BTK (C481S); BTK (C481S) 6 nM, pEY 0.2 mg/ml, ATP 10 μM, 15 min compound incubation, 2 h reaction) [nM] | Ratio Dasatinib/the compound of Formula I (BTK (C481S); ratio of IC50 values, BTK (C481S)) | SMILES |
| --- | --- | --- | --- | --- | --- | --- | --- | --- | --- |
| 0.0635 | 211 | 10.9 |  |  |  |  |  |  | Cc1nc(Nc2ncc(C(=O)Nc3c(C)cccc3Cl)s2)cc(N2CCN(CCO)CC2)n1 [Dasatinib, reference compound] |
| 0.0426 | 142 | 16.3 | 4.2 | 5.95 | 0.157 | 3.32 | 0.032 | 3.53 | Cc1nc(Nc2ncc(C(=O)Nc3c(C)cc(F)cc3Cl)s2)cc(N2CCN(CCO)CC2)n1 [The compound of Formula I, N-(2-chloro-4-fluoro-6-methylphenyl)-2-[[6-[4-(2-hydroxyethyl)-1-piperazinyl]-2-methyl-4-pyrimidinyl]amino]-5-thiazolecarboxamide] |
